Mutagenic call data for seven compounds are collected here from PubChem BioAssay AID1259407 (Chemical Carcinogenesis Research Information System (CCRIS), 2018).

Activity calls are given as the source filed them. How the calls were made is not given here.

The test system of this series is CCRIS mutagenicity, Ames/micronucleus/aberration tests. Description: CCRIS mutagenicity studies.
Setting [1] is: Test System: AMES SALMONELLA TYPHIMURIUM, Strain/Indicator: TA98, Metabolic Activation: NONE, Method: STANDARD PLATE.
[2] abbreviates: Test System: AMES SALMONELLA TYPHIMURIUM, Strain/Indicator: TA98, Metabolic Activation: RAT, LIVER, S-9, AROCLOR 1254, Method: STANDARD PLATE.
Where [3] appears, read: Test System: AMES SALMONELLA TYPHIMURIUM, Strain/Indicator: TA100, Metabolic Activation: NONE, Method: STANDARD PLATE.
Where [4] appears, read: Test System: AMES SALMONELLA TYPHIMURIUM, Strain/Indicator: TA100, Metabolic Activation: RAT, LIVER, S-9, AROCLOR 1254, Method: STANDARD PLATE.
Setting [5] is: Test System: AMES SALMONELLA TYPHIMURIUM, Strain/Indicator: TA98, Metabolic Activation: NONE, Method: PREINCUBATION

With `O=CN(O)c1ccc(Cl)c(Cl)c1`, the mutagenic call runs as follows: (Test System: AMES SALMONELLA TYPHIMURIUM, Strain/Indicator: TA97, Metabolic Activation: NONE, Method: STANDARD PLATE) “inactive; negative”; (Test System: AMES SALMONELLA TYPHIMURIUM, Strain/Indicator: TA97, Metabolic Activation: RAT, LIVER, S-9, AROCLOR 1254, Method: STANDARD PLATE) “inactive; negative”; under setting [1], “inactive; negative”; under setting [2], “inactive; negative”; under setting [3], “inactive; negative”; under setting [4], “inactive; negative”. The mutagenic call reads like this: (Test System: AMES SALMONELLA TYPHIMURIUM, Strain/Indicator: TA104, Metabolic Activation: NONE, Method: STANDARD PLATE) “inactive; negative”; (Test System: AMES SALMONELLA TYPHIMURIUM, Strain/Indicator: TA104, Metabolic Activation: RAT, LIVER, S-9, AROCLOR 1254, Method: STANDARD PLATE) “inactive; negative”.
`CC(=O)c1cc(O)c(C(C)C)c2cc(C)c(-c3c(C)cc4c(C(C)C)c(O)c(O)c(C=O)c4c3O)c(O)c12`: the mutagenic call runs as follows: (Test System: AMES SALMONELLA TYPHIMURIUM, Strain/Indicator: TA97A, Metabolic Activation: S-9, Method: STANDARD PLATE) “inactive; negative”; (Test System: AMES SALMONELLA TYPHIMURIUM, Strain/Indicator: TA98, Metabolic Activation: S-9, Method: STANDARD PLATE) “inactive; negative”; (Test System: AMES SALMONELLA TYPHIMURIUM, Strain/Indicator: TA100, Metabolic Activation: S-9, Method: STANDARD PLATE) “inactive; negative”; (Test System: AMES SALMONELLA TYPHIMURIUM, Strain/Indicator: TA102, Metabolic Activation: S-9, Method: STANDARD PLATE) “inactive; negative”.
On to `C=C1[C@@H](C)[C@H]2[C@H](Cc3ccccc3)NC(=O)[C@]23OC(=O)/C=C/[C@H](O)CCC[C@@H](C)C/C=C/[C@H]3[C@@H]1O`, for which, where the note is “End Point: In vivo micronucleus, Test System: Micronucleated, binucleated and multinucleated hepatocytes, Species: Mouse, Strain/Sex: ddY/Male, Route: Intravenous”, the mutagenic call was “active; positive for micronucleated cells when agent administered before and after parti”.
Consider `CC(C)=CCc1ccc(O)c2c(=O)c3c(O)c4c(cc3oc12)O[C@H]1OC=C[C@@]41O`, for which the mutagenic call reads like this: under setting [1], “active; positive”; under setting [2], “active; positive”; under setting [3], “active; positive”; under setting [4], “active; positive”.
`C=CCc1[c-]cccc1.C=CCc1[c-]cccc1.[Pt+2]`: the mutagenic call by setting is: (Test System: AMES SALMONELLA TYPHIMURIUM, Strain/Indicator: TA92, Metabolic Activation: NONE, Method: STANDARD PLATE) “inactive; negative”; under setting [1], “inactive; negative”; under setting [3], “inactive; negative”; (Test System: AMES SALMONELLA TYPHIMURIUM, Strain/Indicator: TA2410, Metabolic Activation: NONE, Method: STANDARD PLATE) “inactive; negative”.
On to `N=C(N)c1ccccc1`, for which the mutagenic call is “inactive; negative” (Test System: AMES SALMONELLA TYPHIMURIUM, Strain/Indicator: TA98, Metabolic Activation: CO631 CELLS, Method: PREINCUBATION); “inactive; negative” under setting [5]; “inactive; negative” (Test System: AMES SALMONELLA TYPHIMURIUM, Strain/Indicator: TA98, Metabolic Activation: RABBIT, LIVER, S-9, Method: PREINCUBATION); “inactive; negative” (Test System: AMES SALMONELLA TYPHIMURIUM, Strain/Indicator: TA98, Metabolic Activation: RAT HEPATOCYTES, Method: PREINCUBATION); “inactive; negative” (Test System: AMES SALMONELLA TYPHIMURIUM, Strain/Indicator: TA98, Metabolic Activation: RAT, LIVER, S-9, AROCLOR 1254, ATP, Method: PREINCUBATION); “inactive; negative” (Test System: AMES SALMONELLA TYPHIMURIUM, Strain/Indicator: TA98, Metabolic Activation: RAT, LIVER, S-9, AROCLOR 1254, Method: PREINCUBATION). Besides, the mutagenic call is, setting by setting: (Test System: AMES SALMONELLA TYPHIMURIUM, Strain/Indicator: TA100, Metabolic Activation: RABBIT, LIVER, S-9, Method: PREINCUBATION) “inactive; negative”; (Test System: AMES SALMONELLA TYPHIMURIUM, Strain/Indicator: TA100, Metabolic Activation: RAT HEPATOCYTES, Method: PREINCUBATION) “inactive; negative”; (Test System: AMES SALMONELLA TYPHIMURIUM, Strain/Indicator: TA100, Metabolic Activation: RAT, LIVER, S-9, AROCLOR 1254, ATP, Method: PREINCUBATION) “inactive; negative”; (Test System: AMES SALMONELLA TYPHIMURIUM, Strain/Indicator: TA100, Metabolic Activation: RAT, LIVER, S-9, AROCLOR 1254, Method: PREINCUBATION) “inactive; negative”.
`C=CC(=O)OCCBr`: the mutagenic call was “inactive; negative” (Test System: AMES SALMONELLA TYPHIMURIUM, Strain/Indicator: TA97, Metabolic Activation: HAMSTER, LIVER, S-9, AROCLOR 1254 (10%), Method: PREINCUBATION); “inactive; negative” (Test System: AMES SALMONELLA TYPHIMURIUM, Strain/Indicator: TA97, Metabolic Activation: NONE, Method: PREINCUBATION); “inactive; negative” (Test System: AMES SALMONELLA TYPHIMURIUM, Strain/Indicator: TA97, Metabolic Activation: RAT, LIVER, S-9, AROCLOR 1254 (10%), Method: PREINCUBATION); “inactive; negative” (Test System: AMES SALMONELLA TYPHIMURIUM, Strain/Indicator: TA98, Metabolic Activation: HAMSTER, LIVER, S-9, AROCLOR 1254 (10%), Method: PREINCUBATION); “inactive; negative” under setting [5]; “inactive; negative” (Test System: AMES SALMONELLA TYPHIMURIUM, Strain/Indicator: TA98, Metabolic Activation: RAT, LIVER, S-9, AROCLOR 1254 (10%), Method: PREINCUBATION). Further, the mutagenic call (Test System: AMES SALMONELLA TYPHIMURIUM, Strain/Indicator: TA100, Metabolic Activation: HAMSTER, LIVER, S-9, AROCLOR 1254 (10%), Method: PREINCUBATION) was “active; positive”; the mutagenic call (Test System: AMES SALMONELLA TYPHIMURIUM, Strain/Indicator: TA100, Metabolic Activation: NONE, Method: PREINCUBATION) was “inactive; negative”; the mutagenic call (Test System: AMES SALMONELLA TYPHIMURIUM, Strain/Indicator: TA100, Metabolic Activation: RAT, LIVER, S-9, AROCLOR 1254 (10%), Method: PREINCUBATION) was “active; positive”; the mutagenic call (Test System: AMES SALMONELLA TYPHIMURIUM, Strain/Indicator: TA1535, Metabolic Activation: HAMSTER, LIVER, S-9, AROCLOR 1254 (10%), Method: PREINCUBATION) was “active; positive”; the mutagenic call (Test System: AMES SALMONELLA TYPHIMURIUM, Strain/Indicator: TA1535, Metabolic Activation: NONE, Method: PREINCUBATION) is “active; positive”; the mutagenic call (Test System: AMES SALMONELLA TYPHIMURIUM, Strain/Indicator: TA1535, Metabolic Activation: RAT, LIVER, S-9, AROCLOR 1254 (10%), Method: PREINCUBATION) is “active; positive”.
